Data from publication PMC11575553 (Chemical Science, 2024).

Tested on: SARS-CoV-2 dimerization loop (DL) RNA
Format: binding
Settings: 2.5 μM peptide; 0.010 M HEPES pH 7.0, 0.30 M NaCl; average of two replicates

## MGCAQLRKQL(pCaaF)Y (sidechain bridge or staple) [Peptide K1A]
  SPR response relative to parent peptide MG-FSS-m1: comparable

## MGCKQLRKQA(pCaaF)Y (sidechain bridge or staple) [Peptide L7A]
  SPR response relative to parent peptide MG-FSS-m1: lower

## MGCKQLRKAL(pCaaF)Y (sidechain bridge or staple) [Peptide Q6A]
  SPR response relative to parent peptide MG-FSS-m1: substantially higher

## MGCKQLAKQL(pCaaF)Y (sidechain bridge or staple) [Peptide R4A]
  SPR response relative to parent peptide MG-FSS-m1: comparable

## MGCKQLRAQL(pCaaF)Y (sidechain bridge or staple) [Peptide K5A]
  SPR response relative to parent peptide MG-FSS-m1: comparable

## MGCKALRKQL(pCaaF)Y (sidechain bridge or staple) [Peptide Q2A]
  SPR response relative to parent peptide MG-FSS-m1: substantially lower

## MGCKQARKQL(pCaaF)Y (sidechain bridge or staple) [Peptide L3A]
  SPR response relative to parent peptide MG-FSS-m1: substantially lower
